Laboratory results reported in patent publication US5783179A, “C-reactive protein fragment with immunomodulatory activity” (Syntex (U.S.A.) Inc., priority 1991, dated 1998).

Test system: T241 fibrosarcoma lung metastases
Assay: Mouse T241 fibrosarcoma model: evaluation of lung metastases after amputation of the tumor-bearing foot
Type: in vivo, male C57BL/6 mice
Conditions: Day 35, soluble CRP-peptide 1.25 μg per dose
Description: The CRP-peptide was assayed for activity in the mouse T241 fibrosarcoma model, whereby the ability to block lung metastasis formation is measured.
The procedures have been described in detail previously (Deodhar, et al, Cancer Res 42:5084-5088, 1982). Suspensions of 5×10^5 viable T241 fibrosarcoma cells in 0.1 ml of Hanks's balanced salt solution were injected subcutaneously into the dorsum of one hind foot of ten male C57BL/6 mice (Jackson Laboratories, Bar Harbor, Me.) per experiment. Seventeen days after tumor implantation, the tumor-bearing foot was amputated below the knee. The mean tumor weight at this stage was 152 ±58 (S.E.M.) mg. The tumor weight was determined by subtracting the weight of an amputated normal foot from that of a tumor-bearing foot. Previous studies have shown that T241 fibrosarcoma starts seeding the lung parenchyma by Day 10 after foot tumor implantation; by Day 17, virtually all animals have lung macro- and/or micrometastases. The animals were then randomized into control and experimental groups, and appropriate therapy was started after amputation of the tumor-bearing foot.
Treatments consisted of intravenous (orbital sinus) injections of liposomes containing CRP, liposomal CRP-peptide of Example 2, or liposomal CRP-peptide of Example 2 plus intraperitoneal injections of non-encapsulated soluble recombinant interleukin-2 (Cetus Corp., Emeryville, Calif.), or non-encapsulated interleukin-2 (IL-2) alone, whereas the control groups received either no treatment, liposomes containing buffer medium alone, or liposomes containing buffer medium plus non-encapsulated CRP peptide. […] On Day 35 of the experiment, all animals were killed, and the lungs were evaluated for number and size of metastases.
Tumor metastases could be clearly recognized as raised, hemorrhagic, opaque, and dense nodules, distinguishable from the smooth, glistening, spongy, and pink normal lung parenchyma. […] To obtain an approximate assessment of the total metastatic tumor burden in the lungs, the "metastatic index", reflecting both number and size of metastases, was calculated as follows. […]

## H-IYLGGPFSPNVL-OH [Soluble CRP-peptide]
MLV: 0.25 μg CRP or CRP-peptide i.v. 3x per week for 2 weeks
  No. of Metastatic Foci (+ SEM): 12.9 ± 2.9
MLV: 2.5 μmols lipid containing 0.25 μg CRP or CRP-peptide i.v. 3x per week for 2 weeks
  No. Animals with Lung Metastases: 10/10
Mean of group, MLV: 0.25 μg CRP or CRP-peptide i.v. 3x per week for 2 weeks
  Metastatic Index (+ SEM): 49.7 ± 10.1
